# From patent US7691842B2, “Tricyclic 6-alkylidene-penems as β-lactamase inhibitors” (Wyeth LLC, priority 2002, dated 2010)
# Assays:
# [1] = target: class A β-lactamase TEM-1 (Escherichia coli, UniProt P62593); experiment: β-Lactamase inhibition, IC50 determination (nitrocefin, spectrophotometric); type: biochemical, E. Coli; conditions: enzyme 4.3 nM; 10 min preincubation at 25° C.; nitrocefin 50 μg/ml; 50 mM PO4, pH 7.0; read-out: IC50 (nM) Class A TEM-1
# Procedure: (§1) IC50 Determination for the Penem Inhibitor
# (§2) β-Lactamase inhibitory activity of the penem inhibitors was determined spectrophotometrically as described by Bush et al., [Bush, K., Macalintal, C., Rasmussen, B. A., Lee, V. and Yang, Y. Antimicrobial Agents and Chemotherapy 1993, 37, 851]. Homogeneously purified class A β-lactamases TEM-1 from E. Coli and Imi-1 from Enterobacter cloacae, class B enzyme CcrA from Bacteroides fragilis and class C enzyme AmpC from Enterobacter cloaca were employed in the assay. The enzyme concentrations for TEM-1, Imi-1, CcrA and AmpC were 4.3, 7.1, 1.2 and 2.1 nM, respectively. A wide range of inhibitor concentrations were prepared in 50 mM PO4, pH 7.0 to include the possible IC50 values. The substrate used to initiate the enzyme reaction was nitrocefin at 50 μg/ml in the same buffer as the inhibitor. Initially the enzyme and inhibitor (20 μl each) were preincubated for 10 minutes at 25° C. prior to the addition of 160 μl volume of nitrocefin. Initial rates of hydrolysis were monitored for 5 minutes at 495 nm using a Molecular Devices Spectra Max 250 with kinetic protocol of SoftMax Program. Readings from the Spectra Max 250 were exported and transferred to Microsoft Excel. The percent of inhibition of each inhibitor concentration was calculated based on the control enzyme activity. The inhibitor concentration that caused a 50% reduction in the enzymatic activity (IC50) was determined graphically.
# [2] = target: class A β-lactamase Imi-1 (Enterobacter cloacae, UniProt Q46991); experiment: as above; type: biochemical; conditions: enzyme 7.1 nM; 10 min preincubation at 25° C.; nitrocefin 50 μg/ml; 50 mM PO4, pH 7.0; read-out: IC50 (nM) Class A Imi
# Sequence of class A β-lactamase Imi-1 (Q46991 entry or part of it): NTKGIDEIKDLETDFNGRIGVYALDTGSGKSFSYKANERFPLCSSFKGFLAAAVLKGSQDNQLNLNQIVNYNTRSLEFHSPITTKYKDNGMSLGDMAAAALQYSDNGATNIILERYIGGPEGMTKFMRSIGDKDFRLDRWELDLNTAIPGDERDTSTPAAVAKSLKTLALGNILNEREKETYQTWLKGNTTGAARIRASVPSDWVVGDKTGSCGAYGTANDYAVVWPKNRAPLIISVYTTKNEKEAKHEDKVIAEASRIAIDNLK
# Procedure: as §1, §2
# class B enzyme CcrA = class B enzyme CcrA (Bacteroides fragilis, UniProt P25910); experiment: as above; type: biochemical; conditions: enzyme 1.2 nM; 10 min preincubation at 25° C.; nitrocefin 50 μg/ml; 50 mM PO4, pH 7.0; read-out: IC50 (nM) Class B Ccr
# Sequence of class B enzyme CcrA (P25910 19-249): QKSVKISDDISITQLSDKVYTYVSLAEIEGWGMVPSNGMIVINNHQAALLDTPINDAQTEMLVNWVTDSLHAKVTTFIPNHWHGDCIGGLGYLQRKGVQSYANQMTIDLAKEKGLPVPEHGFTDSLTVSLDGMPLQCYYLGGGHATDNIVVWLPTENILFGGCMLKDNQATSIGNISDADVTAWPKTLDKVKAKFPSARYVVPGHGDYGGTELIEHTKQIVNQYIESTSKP
# Procedure: as §1, §2
# class C enzyme AmpC = class C enzyme AmpC (Enterobacter cloacae, UniProt P05364); experiment: biochemical; parameters: species or system Enterobacter cloaca; conditions: enzyme 2.1 nM; 10 min preincubation at 25° C.; nitrocefin 50 μg/ml; 50 mM PO4, pH 7.0; read-out: IC50 (nM) Class C AmpC
# Sequence of class C enzyme AmpC (P05364 21-381): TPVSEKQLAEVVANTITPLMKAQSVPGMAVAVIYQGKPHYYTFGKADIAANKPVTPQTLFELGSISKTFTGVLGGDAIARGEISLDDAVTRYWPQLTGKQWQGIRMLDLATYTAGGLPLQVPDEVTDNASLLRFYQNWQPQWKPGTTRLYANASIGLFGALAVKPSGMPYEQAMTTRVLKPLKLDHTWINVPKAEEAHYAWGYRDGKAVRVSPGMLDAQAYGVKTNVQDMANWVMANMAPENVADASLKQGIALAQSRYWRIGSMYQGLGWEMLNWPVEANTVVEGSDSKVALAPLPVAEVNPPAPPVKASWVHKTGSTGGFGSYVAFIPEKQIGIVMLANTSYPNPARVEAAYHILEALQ
# Procedure: as §1, §2
# E. Cloacae GC1477 (Ampc) = experiment: Antimicrobial susceptibility testing, microbroth dilution MIC of piperacillin + inhibitor; type: cell-based; conditions: piperacillin combined with constant 4 μg/ml inhibitor; Inc: 35° C. for 18 hours
# Procedure: (§3) Antimicrobial susceptibility testing. The in vitro activities of the antibiotics were determined by the microbroth dilution method as recommended by the National Committee for Clinical Laboratory Standards (NCCLS). (NCCLS. 2000. Methods for Dilution Antimicrobial Susceptibility Tests for Bacteria That Grow Aerobically; Approved Standards: M7-A5, vol. 19. National Committee for Clinical Laboratory Standards, Villanova, Pa.). Mueller-Hinton it broth (MHBII)(BBL Cockeysville, Md.), was used for the testing procedure. Microtiter plates containing 50 μl per well of two-fold serial dilutions of piperacillin combined with a constant amount (4 μg/ml) of a B-lactamase inhibitor (final concentration) were inoculated with 50 μl of inoculum to yield the appropriate density (10^5 CFU/ml) in 100 μl. The plates were incubated for 18-22 hours at 35° C. in ambient air.
# E. Coli GC2203 = experiment: as above; type: cell-based; conditions: piperacillin combined with constant 4 μg/ml inhibitor; Inc: 35° C. for 18 hours
# Procedure: as §3
# E. Coli GC2844 = experiment: as above; type: cell-based; conditions: piperacillin combined with constant 4 μg/ml inhibitor; Inc: 35° C. for 18 hours
# Procedure: as §3
# E. Coli GC2847 (TEM-1) = experiment: as above; type: cell-based; conditions: piperacillin combined with constant 4 μg/ml inhibitor; Inc: 35° C. for 18 hours
# Procedure: as §3
# E. Coli GC2894 (Ampc) = experiment: as above; type: cell-based; conditions: piperacillin combined with constant 4 μg/ml inhibitor; Inc: 35° C. for 18 hours
# Procedure: as §3
# E. Coli GC2920 (IRT-2) = experiment: as above; type: cell-based; conditions: piperacillin combined with constant 4 μg/ml inhibitor; Inc: 35° C. for 18 hours
# Procedure: as §3
# [3] = test system: P. aeruginos GC1764 (Ampc); experiment: as above; type: cell-based; conditions: piperacillin combined with constant 4 μg/ml inhibitor; Inc: 35° C. for 18 hours
# Procedure: as §3
# [4] = test system: S. Marcescens GC1781 Sme-1 + Ampc; experiment: as above; type: cell-based; conditions: piperacillin combined with constant 4 μg/ml inhibitor; Inc: 35° C. for 18 hours
# Procedure: as §3
# S. aureus GC2216 = experiment: as above; type: cell-based; conditions: piperacillin combined with constant 4 μg/ml inhibitor; Inc: 35° C. for 18 hours
# Procedure: as §3
# [5] = test system: Clinical isolates that have been adapted to cause infection in mice; experiment: In vivo antibacterial protection (7 day survival of infected mice, ED50); parameters: species or system mice strain CD-1
# Source text: In Vivo Antibacterial Protection
# Female mice strain CD-1, approximately 18-22 grams, were received from Charles River Laboratories and quarantined 7 days prior to use. In addition, mice may be rendered neutropenic using cytoxan for particular studies.
# Clinical isolates that have been adapted to cause infection in mice, are used in the experiment, including infections with strains of E. coli, K. pneumoniae, M. morganii, E. cloacae, S. marcescens, C. freundii, staphylococci, streptococci, P. aeruginosa and N. gonorrhoeae.
# Mice are challenged by injecting 0.5 ml intraperitoneally or 0.05 ml intranasally of a predetermined bacterial inoculum suspended in broth, saline or hog gastric mucin (supplemented with dried bovine hemoglobin for N. gonorrhoeae). […] Antibacterial doses (dose concentration prepared by two fold serial dilutions of the antibiotic) are dissolved or suspended in 0.2% aqueous agar or methocel, phosphate buffered saline or an adjuvant are administered orally, subcutaneously or intravenously in the following manner: • a) Orally or subcutaneously: Dose volume of 0.5 ml administered ½ hr after infection. A second dose may be administered 3 hr. after infection for treatment of infections with more virulent organisms. • b) Intravenously: Dose volume of 0.2 ml, administered ½ hr. after infection. For the treatment of infections with more virulent organisms, more doses, up to 48 hr may be administered. (Intravenous dosing will not exceed 3 doses/24 hr period.) • c) Oral pretreatment: Under special circumstances, the pH of the stomach needs to be adjusted in order to increase the gastric stability of the antibiotic. For this purpose, 0.5 ml of phosphate buffered saline (pH7.8, 0.06M) (or specific approved adjuvant) is administered orally ½ hr after infection, followed 5 minutes later by 0.5 ml of antibiotic (also orally) contained in phosphate buffered saline (pH7.8, 0.06M). Animal Species
# A detailed explanation as to the number of animals needed for the determination of in vivo efficacy follows: • A) Novel antibiotics are tested at 5 different dose levels with 5 mice per dose level at each of three routes of administration (oral, subcutaneous and intravenous). […] This would require 25 mice/route with 3 routes/antibiotic or 75 mice per novel compound tested. One to two novel antibiotics will be tested per experiment (75-150 mice) • B) The effectiveness of the new compound must be compared to that of a standard, or antibiotic of known effectiveness. Known or previously tested antibiotics are tested at 5 dose levels with 5 mice per dose level by a single route of administration, for a total of 25 mice/antibiotic. Usually 3-6 antibiotics will be tested per experiment. (75-150 mice). • C) Untreated controls—In each of the above tests, untreated animals are infected with 3 different concentrations of bacterial inoculum with 10 mice per concentration (30 mice total in each and every test). These untreated controls are used to determine and maintain the infection level between 10-100 LD50s as required for test to test comparison and validity. Determination of Protective Effects of Antibacterial Agents:
# The protective effects of the antibacterial agent(s) are measured by the survival of the infected untreated as compared to the treated animals. For this determination, animals are observed for 7 days after treatment. A census of survivors is taken twice daily and at that time dead as well as moribund animals are removed. The 7 day survival ratio from three separate tests are pooled for estimation of median effective dose (ED50) by computerized program for probit analysis (Cleeland, R. and E. Squires. 1991. Evaluation of New Antimicrobials in Vitro and in Experimental Animal Infections. In Antibiotics in Laboratory Medicine”, 3rd. ed., edited by Victor Lorian. Willams and Wilkins Baltimore, Md. pp. 752-783). […]
# [6] = Ratio of Piperacillin Inhibitor 4:1
# Sequence of class A β-lactamase TEM-1 (P62593 24-286 limits assumed): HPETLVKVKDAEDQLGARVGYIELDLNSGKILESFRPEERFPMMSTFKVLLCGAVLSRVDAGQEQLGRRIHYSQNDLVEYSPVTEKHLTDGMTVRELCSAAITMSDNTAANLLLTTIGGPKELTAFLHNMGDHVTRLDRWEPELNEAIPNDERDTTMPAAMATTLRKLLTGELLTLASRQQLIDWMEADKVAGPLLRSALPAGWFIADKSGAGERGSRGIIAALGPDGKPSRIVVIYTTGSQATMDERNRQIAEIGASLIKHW
Compound,IC50 [1] [nM],IC50 [2] [nM],IC50 (class B enzyme CcrA) [nM],IC50 (class C enzyme AmpC) [nM],Minimal Inhibitory Concentration E. Cloacae GC1477 (Ampc) (E. Cloacae GC1477 (Ampc)) [µg/mL],Minimal Inhibitory Concentration E. Coli GC2203 (E. Coli GC2203) [µg/mL],Minimal Inhibitory Concentration E. Coli GC2844 (E. Coli GC2844) [µg/mL],Minimal Inhibitory Concentration E. Coli GC2847 (TEM-1) (E. Coli GC2847 (TEM-1)) [µg/mL],Minimal Inhibitory Concentration E. Coli GC2894 (Ampc) (E. Coli GC2894 (Ampc)) [µg/mL],Minimal Inhibitory Concentration E. Coli GC2920 (IRT-2) (E. Coli GC2920 (IRT-2)) [µg/mL],Minimal Inhibitory Concentration P. aeruginos GC1764 (Ampc) [3] [µg/mL],Minimal Inhibitory Concentration S. Marcescens GC1781 Sme-1 + Ampc [4] [µg/mL],Minimal Inhibitory Concentration S. aureus GC2216 (S. aureus GC2216),"ED50 [5, 6] [mg/kg]",ED50 ([5]; Ratio of Piperacillin Inhibitor not given) [mg/kg]
O=C(O)C1=CS[C@@H]2/C(=C\c3cn4c(n3)sc3cc(Cl)ccc34)C(=O)N12 [Example 3],5.6,22,74,3.2,16,1,2,4,2,1,8,1,<0.06 µg/mL,32 to 64,–
"O=C(O)C1=CS[C@@H]2/C(=C\c3cn4c5c(sc4n3)CCC5)C(=O)N12 [Example 5, (5R),(6Z)-6-(6,7-dihydro-5H-cyclopenta[d]imidazo[2,1-b][1,3]thiazol-2-ylmethylene)-7-oxo-4-thia-1-azabicyclo[3.2.0]hept-2-ene-2-carboxylic acid]",1.4,–,240,2.1,16,2,2,4,2,2,1,0.5,<0.06 µg/mL,19.5,–
Cc1ccc2c(c1)sc1nc(/C=C3/C(=O)N4C(C(=O)O)=CS[C@H]34)cn12 [Example 7],2.6,106,103,1.1,32,1,2,4,4,2,16,0.5,<0.06 µg/mL,137,–
"O=C(O)C1=CS[C@@H]2/C(=C\c3cn4c5c(sc4n3)COCC5)C(=O)N12 [Example 15, (5R),(6Z)-6-(5,8-dihydro-6H-imidazo[2,1-b]pyrano[4,3-d][1,3]thiazol-2-ylmethylene)-7-oxo-4-thia-1-azabicyclo[3.2.0]hept-2-ene-2-carboxylic acid]",2.8,100,200,1.5,16,2,2,4,2,2,4,1,0.05 µg/mL,–,25
"O=C([O-])C1=CS[C@@H]2/C(=C\c3cc4oc5c(n4n3)CCCC5)C(=O)N12.[Na+] [Example 32, (5R,6Z)-7-oxo-6-(5,6,7,8-tetrahydropyrazolo[5,1-b][1,3]benzoxazol-2-ylmethylene)-4-thia-1-1-azabicyclo[3.2.0]hept-2-ene-2-carboxylic acid, sodium salt]",2.6,110,180,5.6,64,2,2,16,32,4,64,2,.05 µg/mL,–,–
